Experimental data reported in US9963703B2, “Compositions and methods for treating pancreatic cancer” (Autotelic LLC, priority 2016, dated 2018).
In the oligonucleotide strings, read from the 5' end, every base follows the letter of its sugar. An asterisk marks phosphorothioate; unmarked linkages are phosphodiester. Other units and linkages are bracketed, terminal groups are in braces. A string of capitals states the bases alone. d = 2'-deoxy (DNA)

Key:
[1] = test system: WiDr colon cancer cells; assay: Cellular proliferation of WiDr colon cancer cells in vitro; assay type: cell-based
Excerpt: The aim of the study was to determine the effect of AP12009 (trabedersen) treatment in combination with 5-Fluorouracil (5-FU) on TGFβ2 secretion and on cellular proliferation of HUP-T3 pancreatic cancer cells and WiDr colon cancer cells in vitro.

[2] = test system: A-172 glioma cells; assay: Proliferation of A-172 glioma cells; assay type: cell-based
Method: (§1) A-172 glioma cells were treated with a combination of AP12009 (trabedersen) 0 to 10 μM) and different concentrations of TMZ (temozolomide) for 7 days (treatment schedule 2*2/1*3 d).
In summary there is no clear beneficial effect in combining AP12009 with TMZ in A-172 cells.

[3] = test system: A-172 glioma cells; assay: A-172 glioma cells, alternative AP12009/TMZ treatment schedules (readout not stated); assay type: cell-based
Method: as §1

[4] = Preclinical toxicology, LOAEL in Cynomolgus monkeys; assay type: in vivo
Method: (§2) The clinical starting dose for the 7-days-on and 7-days-off schedule was based on the Lowest-Observed-Adverse-Effect-Level (LOAEL) devoid of severe toxicity in Cynomolgus monkeys as the most relevant species. This LOAEL of 4 mg/kg body weight (b.w.)/day is equivalent to approximately 1.3 mg/kg b.w./day or 48 mg/m^2/day on a body surface area basis in human adults. These numbers were rounded down and the safe starting dose was defined at 40 mg/m^2/day, equivalent to approximately 1 mg/kg b.w./day in humans. An alternative approach would have been based on the lowest lethal dose (LLD) of 300 mg/kg b.w. obtained in the acute single dose toxicity study in mice (in rats it was determined at 1000 mg/kg), at which 1 of 10 mice died (LLD10). According to the standard method, 10% of this dose (30 mg/kg) on a body surface area basis would then be defined as the clinical starting dose resulting in 90 mg/m^2/day. In the end, the lower of the two alternatives was chosen as starting dose.

[5] = Acute single dose toxicity study in mice; assay type: in vivo; settings: 1 of 10 mice died (LLD10)
Method: as §2

[6] = Acute single dose toxicity in rats; assay type: in vivo
Method: as §2

[7] = converted from Cynomolgus LOAEL

trabedersen: TGF-beta2 specific phosphorothioate antisense oligodeoxynucleotide with the sequence 5′-CGGCATGTCTATTTTGTA-3′ (SEQ ID No: 1) (antisense dC*dG*dG*dC*dA*dT*dG*dT*dC*dT*dA*dT*dT*dT*dT*dG*dT*dA)
cell proliferation, % of untreated control ([1]; 10 μM AP12009): 76% | combination effect on cell proliferation ([1]; 10 μM AP12009 and 5-FU): sub-additive effects | combination effect on cell proliferation ([2]; AP12009 in combination with TMZ): no reproducible beneficial effect | effect on cell proliferation ([2]; monotherapy, 7 days): slightly reduced | benefit of single TMZ treatment combined with 7 day AP12009 treatment ([3]; TMZ day 0 for one day, AP12009 7 days (2*1/1*2/1*3 d)): did not show any benefit or disadvantage | benefit of pre-treatment with AP12009 ([3]; pre-treatment (1*2/1*3 d) with AP12009 before combined AP12009 and TMZ (2*2/1*3 d)): did not show any benefit | Lowest-Observed-Adverse-Effect-Level (LOAEL) devoid of severe toxicity ([4]; Cynomolgus monkeys): 4 mg/kg body weight (b.w.)/day | LOAEL, equivalent in human adults [4, 7]: approximately 1.3 mg/kg b.w./day | LOAEL, equivalent in human adults on a body surface area basis [4, 7]: ~48 mg/m^2/day | lowest lethal dose (LLD) [5]: 300 mg/kg b.w. | lowest lethal dose (LLD) [6]: 1000 mg/kg
